Results taken from patent US20220226586A1, “An Inhaler For Electronically Supervised Parenteral Administration of a Pharmaceutical Composition” (Celon Pharma S.A., priority 2019, published 2022).
Where a name gives a salt, the structure may show the parent alone.

Experiments:
[1] = test system: treatment-resistant depression; conditions: cited from earlier work
[2] = Pharmacokinetics of inhaled esketamine dry powder in healthy volunteers; assay type: in vivo; conditions: overall conclusion
Experimental: Esketamine hydrochloride dry powder formulation of Example 2 was administered to healthy volunteers pulmonary, i.e. directly to the lungs using dry powder inhaler (DPI) (by self-administration).
One puff of dry powder formulation contained 4.6 mg of esketamine hydrochloride, corresponding to 4 mg of esketamine free base and excipients 18.22 mg of lactose monohydrate and 0.18 mg of magnesium stearate.
A single dose was an inhalation events consisting of 1 to 6 puffs, i.e. 4 to 24 mg of esketamine free base nominal dose.
In part A of the study, designed as a one-centre single ascending dose, the medicine was delivered in a single dose once daily (up to 6 consecutive puffs) to 18 healthy volunteer subjects. Subjects were divided into 6 cohorts, cohorts receiving 1, 2, 3, 4, 5 or 6 puffs in a single doses (inhalation events), respectively.
Collection of blood samples for determination of esketamine and esnorketamine concentration and calculation of pharmacokinetic parameters was performed for up 24 hours following the start of the test.
The aim of the study was to determine the amount of puffs needed to obtain plasma concentration similar to that sufficient to achieve antidepressant effect as for 0.20 mg/kg 40 minutes intravenous infusion. It can be predicted on the basis of literature data that this corresponds to concentration at 40 min of infusion between about 60 to 100 ng/ml. […]

[3] = nebulized saline solution, inhalation; cited from earlier work
[4] = cited from earlier work
[5] = cited from earlier work; remark: listed apart in the source
[6] = test system: NMDA receptor; conditions: cited from earlier work
[7] = after oral administration of ketamine
[8] = after intravenous infusion of racemic ketamine

SMILES: CN[C@]1(c2ccccc2Cl)CCCCC1=O [esketamine]
- antidepressant effect in TRD patients ([1]; 40-minute i.v. infusion of 0.20 mg/kg or 0.40 mg/kg (Singh et al.)): rapid onset of robust antidepressant effects
- plasma concentration profile after pulmonary administration [2]: quite smooth, consistent with a target profile and safe for chronic administration

SMILES: CN[C@]1(c2ccccc2Cl)CCCCC1=O [esketamine hydrochloride]
- inhaled bioavailability [3]: reduced

SMILES: CNC1(c2ccccc2Cl)CCCCC1=O (racemic) [ketamine]
- fraction of patients with treatment-resistant depression responsive to treatment ([1]; human, in vivo): about 2/3
- bioavailability ([4]; orally administered): 16-20%
- half-period of concentration fall ([5]; after intravenous infusion 0.5 mg/kg for 40 minutes): below 2 hours
- systemic concentration of parent drug ([5]; intravenous infusion 0.5 mg/kg for 40 minutes, maintained for about 40 minutes): about 200 ng/ml

SMILES: NC1(c2ccccc2Cl)CCCCC1=O (stereo not drawn) [norketamine]
- activity on NMDA receptor relative to ketamine [6]: many times less active than ketamine
- AUC relative to ketamine [4, 7]: exceeding 1000%
- level as % of ketamine level [4, 7]: 500-1000%
- maximum concentration as % of ketamine concentration [5, 8]: 10-20%
- percentage of AUC norketamine to ketamine [5, 8]: 20-40%
